# From ChEMBL document CHEMBL1201862, “PubChem BioAssay data set” (2004)
#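 Method: 48-hour compound exposure of cells in 96-well plates, five concentrations, linear interpolation of endpoints. The concentration for 50% growth inhibition is given as GI50.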 The source made the active and inactive calls. No stated cut-off is given here; in the data, active = GI50 up to about 1.1 µM and inactive = higher.
# Columns and labels:
# Test in all cases: growth of human tumour cells (NCI), 48 h
# HOP-92 = test system: HOP-92
# IGROV-1 = test system: IGROV-1
# UO-31 = test system: UO-31
# HCC 2998 = test system: HCC 2998
# OVCAR-3 = test system: OVCAR-3
# SK-MEL-28 = test system: SK-MEL-28
# COLO 205 = test system: COLO 205
# MDA-MB-435 = test system: MDA-MB-435
# SR = test system: SR
# Hs-578T = test system: Hs-578T
# SF-295 = test system: SF-295
# HT-29 = test system: HT-29
# SNB-19 = test system: SNB-19
# PC-3 = test system: PC-3
# Malme-3M = test system: Malme-3M
# BT-549 = test system: BT-549
# 786-0 = test system: 786-0
# HCT-116 = test system: HCT-116
# SW-620 = test system: SW-620
Structure (SMILES),GI50 (HOP-92),GI50 (IGROV-1),GI50 (UO-31),GI50 (HCC 2998),GI50 (OVCAR-3),GI50 (SK-MEL-28),GI50 (COLO 205),GI50 (MDA-MB-435),GI50 (SR),GI50 (Hs-578T),GI50 (SF-295),GI50 (HT-29),GI50 (SNB-19),GI50 (PC-3),GI50 (Malme-3M),GI50 (BT-549),GI50 (786-0),GI50 (HCT-116),GI50 (SW-620)
Oc1ccc(-c2cn3cc(C(F)(F)F)ccc3n2)cc1,> 100 µM (inactive),63.2 µM (inactive),61.5 µM (inactive),22.1 µM (inactive),41.3 µM (inactive),> 100 µM (inactive),45.2 µM (inactive),41.2 µM (inactive),26.2 µM (inactive),> 100 µM (inactive),45.7 µM (inactive),34.8 µM (inactive),> 100 µM (inactive),46.9 µM (inactive),71.8 µM (inactive),56.4 µM (inactive),30.7 µM (inactive),49.1 µM (inactive),75.5 µM (inactive)
CCOC(=O)C(NC(=O)CC)(Nc1ccc(S(=O)(=O)Nc2ccc(OC)nn2)cc1)C(F)(F)F (stereo unspecified),> 100 µM (inactive),> 100 µM (inactive),> 100 µM (inactive),27.4 µM (inactive),> 100 µM (inactive),> 100 µM (inactive),> 100 µM (inactive),> 100 µM (inactive),> 100 µM (inactive),> 100 µM (inactive),> 100 µM (inactive),> 100 µM (inactive),> 100 µM (inactive),> 100 µM (inactive),> 100 µM (inactive),> 100 µM (inactive),> 100 µM (inactive),> 100 µM (inactive),> 100 µM (inactive)
CC(C)=CCc1cc(C2COc3cc4c(c(O)c3C2=O)C=CC(C)(C)O4)c(O)cc1O (stereo unspecified),16.7 µM (inactive),16.2 µM (inactive),12.8 µM (inactive),18.7 µM (inactive),14.3 µM (inactive),22.4 µM (inactive),20.2 µM (inactive),16 µM (inactive),6.78 µM (inactive),17.8 µM (inactive),17.8 µM (inactive),16.6 µM (inactive),19.3 µM (inactive),12.4 µM (inactive),13.4 µM (inactive),16.3 µM (inactive),19 µM (inactive),17.3 µM (inactive),22 µM (inactive)
CC1=C(C(=O)Nc2ccccc2)C(c2ccc(C3C(C(=O)Nc4ccccc4)=C(C)NC(C)=C3C(=O)Nc3ccccc3)cc2)C(C(=O)Nc2ccccc2)=C(C)N1,3.51 µM (inactive),2.52 µM (inactive),9.27 µM (inactive),2.47 µM (inactive),4.38 µM (inactive),1.79 µM (inactive),3.21 µM (inactive),1.86 µM (inactive),2.03 µM (inactive),2.88 µM (inactive),2.88 µM (inactive),1.85 µM (inactive),6.31 µM (inactive),3.23 µM (inactive),1.89 µM (inactive),2.55 µM (inactive),2.54 µM (inactive),2 µM (inactive),2.11 µM (inactive)
CCOC(=O)C1C(c2ccc(OC)cc2)c2c(n[nH]c2O)CC1(O)OCC (stereo unspecified),> 100 µM (inactive),> 100 µM (inactive),> 100 µM (inactive),> 100 µM (inactive),> 100 µM (inactive),> 100 µM (inactive),> 100 µM (inactive),> 100 µM (inactive),> 100 µM (inactive),> 100 µM (inactive),44.8 µM (inactive),> 100 µM (inactive),> 100 µM (inactive),> 100 µM (inactive),> 100 µM (inactive),> 100 µM (inactive),> 100 µM (inactive),> 100 µM (inactive),> 100 µM (inactive)
CC1OC(O[C@@H]2OC=C(C=O)[C@@]3(O)CC[C@H](C)[C@@H]23)C(O)C(O)C1O (stereo partly specified),> 100 µM (inactive),> 100 µM (inactive),> 100 µM (inactive),> 100 µM (inactive),> 100 µM (inactive),> 100 µM (inactive),> 100 µM (inactive),> 100 µM (inactive),> 100 µM (inactive),> 100 µM (inactive),> 100 µM (inactive),> 100 µM (inactive),> 100 µM (inactive),> 100 µM (inactive),> 100 µM (inactive),> 100 µM (inactive),> 100 µM (inactive),> 100 µM (inactive),> 100 µM (inactive)
Cc1ccc(S(=O)(=O)N2CCN(CCN(C)CCN3CCN(S(=O)(=O)c4ccc(C)cc4)CC3)CC2)cc1,17.7 µM (inactive),16.3 µM (inactive),13.9 µM (inactive),15.9 µM (inactive),16.7 µM (inactive),17.1 µM (inactive),18.2 µM (inactive),17.7 µM (inactive),18.5 µM (inactive),22.3 µM (inactive),17.9 µM (inactive),14.5 µM (inactive),26.2 µM (inactive),20.7 µM (inactive),18.6 µM (inactive),16.9 µM (inactive),19.4 µM (inactive),17 µM (inactive),16.9 µM (inactive)
CC(=O)OC(Cc1ccc2ccccc2n1)(C(F)(F)F)C(F)(F)F,0.142 µM (active),1.31 µM (inactive),2.22 µM (inactive),0.851 µM (active),0.676 µM (active),1.42 µM (inactive),0.217 µM (active),1.21 µM (inactive),0.11 µM (active),1.35 µM (inactive),4.5 µM (inactive),1.27 µM (inactive),3.76 µM (inactive),2.09 µM (inactive),0.849 µM (active),1.6 µM (inactive),1.52 µM (inactive),1.31 µM (inactive),0.426 µM (active)
Cc1ccc(-c2n[nH]c(=O)[nH]2)cc1[N+](=O)[O-],> 100 µM (inactive),> 100 µM (inactive),27.5 µM (inactive),63.4 µM (inactive),> 100 µM (inactive),> 100 µM (inactive),> 100 µM (inactive),> 100 µM (inactive),> 100 µM (inactive),3.01 µM (inactive),> 100 µM (inactive),> 100 µM (inactive),> 100 µM (inactive),> 100 µM (inactive),> 100 µM (inactive),36.8 µM (inactive),> 100 µM (inactive),> 100 µM (inactive),> 100 µM (inactive)
O=c1[nH]c(=O)n(C2CC(O)C(CO)O2)c2nc3ccc4cc5ccccc5cc4c3nc12 (stereo unspecified),> 100 µM (inactive),> 100 µM (inactive),> 100 µM (inactive),> 100 µM (inactive),> 100 µM (inactive),> 100 µM (inactive),> 100 µM (inactive),> 100 µM (inactive),69.5 µM (inactive),> 100 µM (inactive),> 100 µM (inactive),> 100 µM (inactive),> 100 µM (inactive),> 100 µM (inactive),> 100 µM (inactive),> 100 µM (inactive),> 100 µM (inactive),> 100 µM (inactive),> 100 µM (inactive)
O=C(Nc1sccc1S(=O)(=O)c1ccc(Cl)cc1)C(F)(F)F,23.6 µM (inactive),32.1 µM (inactive),25.1 µM (inactive),22.9 µM (inactive),31 µM (inactive),74.3 µM (inactive),17.1 µM (inactive),39.1 µM (inactive),22.8 µM (inactive),18.7 µM (inactive),26.3 µM (inactive),25 µM (inactive),> 100 µM (inactive),21.5 µM (inactive),27.2 µM (inactive),58.5 µM (inactive),17 µM (inactive),14.1 µM (inactive),53.2 µM (inactive)
C=C(C)[C@@]1(O)O[C@H]2C[C@@]3(C)OC(=CC3=O)/C(C)=C\[C@@H]3OC(=O)[C@@]1(C)[C@H]32,20.4 µM (inactive),15 µM (inactive),30.1 µM (inactive),15.3 µM (inactive),15.5 µM (inactive),12.6 µM (inactive),16 µM (inactive),14.7 µM (inactive),6.97 µM (inactive),45.8 µM (inactive),23.7 µM (inactive),19.5 µM (inactive),> 58.7 µM (inactive),16.3 µM (inactive),18.5 µM (inactive),8.89 µM (inactive),11.7 µM (inactive),7.64 µM (inactive),4.9 µM (inactive)
Cn1c(=O)cc(NNc2ccc(Br)cc2)[nH]c1=O,13.9 µM (inactive),11.1 µM (inactive),16.4 µM (inactive),4.59 µM (inactive),3.99 µM (inactive),17.3 µM (inactive),2.58 µM (inactive),12.4 µM (inactive),3.43 µM (inactive),3.88 µM (inactive),13.4 µM (inactive),3.53 µM (inactive),13.6 µM (inactive),10 µM (inactive),16.6 µM (inactive),16.9 µM (inactive),9.59 µM (inactive),10.4 µM (inactive),4.5 µM (inactive)
O=[N+]([O-])c1ccc2c(/N=N/c3ccc4ccccc4c3O)c(O)cc(S(=O)(=O)O)c2c1,21.6 µM (inactive),8.65 µM (inactive),5.78 µM (inactive),39.5 µM (inactive),4.89 µM (inactive),12 µM (inactive),27.7 µM (inactive),16.7 µM (inactive),> 29.3 µM (inactive),41 µM (inactive),32 µM (inactive),44.5 µM (inactive),13.2 µM (inactive),18.2 µM (inactive),18.3 µM (inactive),25.7 µM (inactive),18.7 µM (inactive),19.5 µM (inactive),18.7 µM (inactive)
